Patent publication US6914045B2, “Glycopeptide antibiotics” (Wyeth Holdings Corporation, priority 2001, dated 2005)
In brackets after ≈: the same amount, converted by molar mass.

How the values were obtained:
Escherichia coli = test: in vitro antibacterial evaluation, MIC by broth dilution; assay type: cell-based; conditions: 18 hours at 35° C.
[1] = clinical pathology (serum clinical chemistry) in mice; assay type: in vivo; conditions: CD-1 mice, 20 mg/kg intravenously daily for 9 days, sera day 10
Experimental: 20-day-old CD-1 mice were divided into a vehicle control group (5 mice) and a treatment group (5 mice). Samples of glycopeptide antibiotics were administered at 20 mg/kg intravenously daily for 9 days.

[2] = anatomic pathology (histopathology of heart and kidney) in mice; assay type: in vivo; conditions: CD-1 mice, 20 mg/kg intravenously daily for 9 days, necropsy day 10, microscopic histopathology
Experimental: Samples of tissues from necropsied mice were formalin-fixed, paraffin-embedded, sectioned, stained with hematoxylin and eosin, and examined microscopically. Histopathologic findings were recorded. These findings were subjectively graded on a scale corresponding to slight, mild, moderate, marked and severe as compared to untreated controls.

[3] = test system: Staphylococcus aureus-SMITH (GC 4543); test: acute lethal infection in mice; assay type: in vivo; conditions: acute lethal infection, female CD-1 mice, intraperitoneal challenge, intravenous 30 min. after infection, 7 day survival
How it was run: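 Intraperitoneal challenge of female CD-1 mice with a bacterial dose lethal to untreated animals within 24-48 hr; single iv treatment 30 min later, 5 mice per dose level. Survival is scored at day 7 and pooled from three experiments to give the median effective dose.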

Enterococcus sp. = test: in vitro antibacterial evaluation, MIC by broth dilution; assay type: cell-based; conditions: broth dilution, 18 hours at 35° C.
How it was run: (§1)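 Step 1: dilute antibiotic across 64-0.06 μg/mL in Muller-Hinton II […]. Step 2: inoculate at 5×10^5 CFU/mL.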

Streptococcus sp. = test: as above; assay type: cell-based; conditions: broth dilution, 18 hours at 35° C.
How it was run: as §1

Staphylococcus sp. = test: as above; assay type: cell-based; conditions: broth dilution, 18 hours at 35° C.
How it was run: as §1

With `COc1ccc2cc(COCC3OC(OC4C(CO)OC(Oc5ccc(CC6NC(=O)C(C(C)c7ccccc7)NC(=O)CNC(=O)C(CO)NC(=O)C(CC7CNC(=N)N7C7OC(CO)C(O)C(O)C7O)NC(=O)C(CC7CNC(=N)N7)NC6=O)cc5)C(O)C4O)C(O)C(O)C3O)ccc2c1` (stereo not drawn) [Example 245, Cyclo[3-(2-iminoimidazolidin-4-yl)alanyl-3-(3-hexopyranosyl-2-iminoimidazolidin-4-yl)-alanylserylglycyl-β-methylphenylalanyl-O-[4-O-[6-O-[(6-methoxy-2-naphthyl)methyl]-hexopyranosyl]hexopyranosyl]tyrosyl]] the “MIC Escherichia coli (ATCC 25922)” value (Escherichia coli) was 64 µg/mL (≈ 44.6 µM), the “MIC Escherichia coli (GC 4559)” value (Escherichia coli) was 32 µg/mL (≈ 22.3 µM) and the “MIC Escherichia coli (GC 4560)” value (Escherichia coli) was 4 µg/mL (≈ 2.79 µM). For the same molecule, the “Clinical Chemistry (Day 10) % of Control, BUN” value [1] was “+160%”, the “Clinical Chemistry (Day 10) % of Control, Creatinine” value [1] was “+138%” and the “Anatomical Pathology (Day 10), Heart” value [2] was 0. For the same molecule, the “Anatomical Pathology (Day 10), Kidney” value [2] was “+++”, the median effective dose (ED50), Staphylococcus aureus-SMITH (GC 4543) [3] was 4 mg/kg and the “MIC Enterococcus avium (GC 4558)” value (Enterococcus sp.) was 16 µg/mL (≈ 11.2 µM). The “MIC Enterococcus faecalis (ATCC 29212)” value (Enterococcus sp.) was 32 µg/mL (≈ 22.3 µM), the “MIC Enterococcus faecalis (GC 2242)” value (Enterococcus sp.) was 16 µg/mL (≈ 11.2 µM) and the “MIC Enterococcus faecalis (GC 2691)” value (Enterococcus sp.) was 32 µg/mL (≈ 22.3 µM). The “MIC Enterococcus faecalis (GC 3059)” value (Enterococcus sp.) was 16 µg/mL (≈ 11.2 µM), the “MIC Enterococcus faecalis (GC 4552)” value (Enterococcus sp.) was 16 µg/mL (≈ 11.2 µM) and the “MIC Enterococcus faecalis (GC 4553)” value (Enterococcus sp.) was 16 µg/mL (≈ 11.2 µM). For the same molecule, the “MIC Enterococcus faecalis (GC 4554)” value (Enterococcus sp.) was 32 µg/mL (≈ 22.3 µM), the “MIC Enterococcus faecalis (GC 6189)” value (Enterococcus sp.) was 32 µg/mL (≈ 22.3 µM) and the “MIC Enterococcus faecium (GC 2243)” value (Enterococcus sp.) was 16 µg/mL (≈ 11.2 µM). The “MIC Enterococcus faecium (GC 4556)” value (Enterococcus sp.) was 16 µg/mL (≈ 11.2 µM), the “MIC Enterococcus faecium (GC 4557)” value (Enterococcus sp.) was 4 µg/mL (≈ 2.79 µM) and the “MIC Enterococcus faecalis (ATCC 29212)” value (Enterococcus sp.; strain ATCC 29212) was 32 µg/mL (≈ 22.3 µM). For the same molecule, the “MIC Enterococcus faecium (GC 2243)” value (Enterococcus sp.; strain GC 2243) was 16 µg/mL (≈ 11.2 µM), the “MIC Enterococcus faecalis (GC 4552)” value (Enterococcus sp.; strain GC 4552) was 16 µg/mL (≈ 11.2 µM) and the “MIC Enterococcus faecalis (GC 4553)” value (Enterococcus sp.; strain GC 4553) was 16 µg/mL (≈ 11.2 µM). The “MIC Enterococcus faecalis (GC 4554)” value (Enterococcus sp.; strain GC 4554) was 32 µg/mL (≈ 22.3 µM), the “MIC Enterococcus faecium (GC 4556)” value (Enterococcus sp.; strain GC 4556) was 16 µg/mL (≈ 11.2 µM) and the “MIC Enterococcus faecium (GC 4557)” value (Enterococcus sp.; strain GC 4557) was 4 µg/mL (≈ 2.79 µM). The “MIC Enterococcus avium (GC 4558)” value (Enterococcus sp.; strain GC 4558) was 16 µg/mL (≈ 11.2 µM), the “MIC Enterococcus faecalis (GC 6189)” value (Enterococcus sp.; strain GC 6189) was 32 µg/mL (≈ 22.3 µM) and the “MIC Enterococcus faecalis (GC 2242)” value (Enterococcus sp.; inoculum 5×10^5 CFU/mL, strain GC 2242) was 16 µg/mL (≈ 11.2 µM). The “MIC Enterococcus faecalis (GC 2691)” value (Enterococcus sp.; inoculum 5×10^5 CFU/mL, strain GC 2691) was 32 µg/mL (≈ 22.3 µM), the “MIC Enterococcus faecalis (GC 3059)” value (Enterococcus sp.; inoculum 5×10^5 CFU/mL, strain GC 3059) was 16 µg/mL (≈ 11.2 µM) and the “MIC Streptococcus agalactiae (GC 4564)” value (Streptococcus sp.) was 4 µg/mL (≈ 2.79 µM). For the same molecule, the “MIC Streptococcus pneumoniae (ATCC 6301)” value (Streptococcus sp.) was 2 µg/mL (≈ 1.4 µM), the “MIC Streptococcus pneumoniae (GC 1894)” value (Streptococcus sp.) was 1 µg/mL (≈ 0.698 µM) and the “MIC Streptococcus pneumoniae (GC 4565)” value (Streptococcus sp.) was 4 µg/mL (≈ 2.79 µM). For the same molecule, the “MIC Streptococcus pyogenes (GC 4563)” value (Streptococcus sp.) was 4 µg/mL (≈ 2.79 µM), the “MIC Streptococcus pneumoniae (ATCC 6301)” value (Streptococcus sp.; inoculum 5×10^5 CFU/mL, strain ATCC 6301) was 2 µg/mL (≈ 1.4 µM) and the “MIC Streptococcus pneumoniae (GC 1894)” value (Streptococcus sp.; inoculum 5×10^5 CFU/mL, strain GC 1894) was 1 µg/mL (≈ 0.698 µM). For the same molecule, the “MIC Streptococcus pyogenes (GC 4563)” value (Streptococcus sp.; inoculum 5×10^5 CFU/mL, strain GC 4563) was 4 µg/mL (≈ 2.79 µM), the “MIC Streptococcus agalactiae (GC 4564)” value (Streptococcus sp.; inoculum 5×10^5 CFU/mL, strain GC 4564) was 4 µg/mL (≈ 2.79 µM) and the “MIC Streptococcus pneumoniae (GC 4565)” value (Streptococcus sp.; inoculum 5×10^5 CFU/mL, strain GC 4565) was 4 µg/mL (≈ 2.79 µM). The “MIC Coagulase Negative Staphylococcus (GC 4547)” value (Staphylococcus sp.) was 4 µg/mL (≈ 2.79 µM), the “MIC Coagulase Negative Staphylococcus (GC 4548)” value (Staphylococcus sp.) was 2 µg/mL (≈ 1.4 µM) and the “MIC Coagulase Negative Staphylococcus (GC 4549)” value (Staphylococcus sp.) was 1 µg/mL (≈ 0.698 µM). The “MIC Coagulase Negative Staphylococcus (GC 4551)” value (Staphylococcus sp.) was 8 µg/mL (≈ 5.58 µM), the “MIC Coagulase Negative Staphylococcus (GC 6257)” value (Staphylococcus sp.) was 2 µg/mL (≈ 1.4 µM) and the “MIC Staphylococcus aureus (ATCC 29213)” value (Staphylococcus sp.) was 4 µg/mL (≈ 2.79 µM). The “MIC Staphylococcus aureus (GC 1131)” value (Staphylococcus sp.) was 8 µg/mL (≈ 5.58 µM), the “MIC Staphylococcus aureus (GC 3051)” value (Staphylococcus sp.) was 4 µg/mL (≈ 2.79 µM) and the “MIC Staphylococcus aureus (GC 3053)” value (Staphylococcus sp.) was 4 µg/mL (≈ 2.79 µM). The “MIC Staphylococcus aureus (GC 4541)” value (Staphylococcus sp.) was 4 µg/mL (≈ 2.79 µM), the “MIC Staphylococcus aureus (GC 4542)” value (Staphylococcus sp.) was 4 µg/mL (≈ 2.79 µM) and the “MIC Staphylococcus aureus (GC 4544)” value (Staphylococcus sp.) was 8 µg/mL (≈ 5.58 µM). The “MIC Staphylococcus aureus (GC 4545)” value (Staphylococcus sp.) was 4 µg/mL (≈ 2.79 µM), the “MIC Staphylococcus aureus-SMITH (GC 4543)” value (Staphylococcus sp.) was 4 µg/mL (≈ 2.79 µM) and the “MIC Staphylococcus haemolyticus (GC 4546)” value (Staphylococcus sp.) was 4 µg/mL (≈ 2.79 µM). The “MIC Staphylococcus aureus (ATCC 29213)” value (Staphylococcus sp.; strain ATCC 29213) was 4 µg/mL (≈ 2.79 µM), the “MIC Staphylococcus aureus (GC 1131)” value (Staphylococcus sp.; strain GC 1131) was 8 µg/mL (≈ 5.58 µM) and the “MIC Staphylococcus aureus (GC 3051)” value (Staphylococcus sp.; strain GC 3051) was 4 µg/mL (≈ 2.79 µM). For the same molecule, the “MIC Staphylococcus aureus (GC 3053)” value (Staphylococcus sp.; strain GC 3053) was 4 µg/mL (≈ 2.79 µM), the “MIC Staphylococcus aureus (GC 4541)” value (Staphylococcus sp.; strain GC 4541) was 4 µg/mL (≈ 2.79 µM) and the “MIC Staphylococcus aureus (GC 4542)” value (Staphylococcus sp.; strain GC 4542) was 4 µg/mL (≈ 2.79 µM). For the same molecule, the “MIC Staphylococcus aureus-SMITH (GC 4543)” value (Staphylococcus sp.; strain GC 4543) was 4 µg/mL (≈ 2.79 µM), the “MIC Staphylococcus aureus (GC 4544)” value (Staphylococcus sp.; strain GC 4544) was 8 µg/mL (≈ 5.58 µM) and the “MIC Staphylococcus aureus (GC 4545)” value (Staphylococcus sp.; strain GC 4545) was 4 µg/mL (≈ 2.79 µM). The “MIC Staphylococcus haemolyticus (GC 4546)” value (Staphylococcus sp.; strain GC 4546) was 4 µg/mL (≈ 2.79 µM), the “MIC Coagulase Negative Staphylococcus (GC 4547)” value (Staphylococcus sp.; strain GC 4547) was 4 µg/mL (≈ 2.79 µM) and the “MIC Coagulase Negative Staphylococcus (GC 4548)” value (Staphylococcus sp.; strain GC 4548) was 2 µg/mL (≈ 1.4 µM). For the same molecule, the “MIC Coagulase Negative Staphylococcus (GC 4549)” value (Staphylococcus sp.; strain GC 4549) was 1 µg/mL (≈ 0.698 µM), the “MIC Coagulase Negative Staphylococcus (GC 4551)” value (Staphylococcus sp.; strain GC 4551) was 8 µg/mL (≈ 5.58 µM) and the “MIC Coagulase Negative Staphylococcus (GC 6257)” value (Staphylococcus sp.; strain GC 6257) was 2 µg/mL (≈ 1.4 µM).
